Measured values published in article PMC3316155 (2012).
Blank lines part the entries; values can stand above or below the molecule they belong to.

What was measured:
Format in all cases: biochemical
[1] = target: T1, PARP-1 [poly(ADP-ribose) polymerase 1] (Homo sapiens, UniProt P09874); test: […]NAD+ automodification assay, single concentration of […]
[2] = target: T1, PARP-1 [poly(ADP-ribose) polymerase 1]; test: […]NAD+ automodification assay, % inhibition at […]; conditions: read-out: % reduction at 1 mM
[3] = target: T1, PARP-1 [poly(ADP-ribose) polymerase 1]; test: Michaelis–Menten kinetics of ADP-ribose incorporation
[4] = target: T1, PARP-1 [poly(ADP-ribose) polymerase 1]; test: […]NAD+ automodification assay with purified PARP-1

T1 sequence (P09874 2-1014): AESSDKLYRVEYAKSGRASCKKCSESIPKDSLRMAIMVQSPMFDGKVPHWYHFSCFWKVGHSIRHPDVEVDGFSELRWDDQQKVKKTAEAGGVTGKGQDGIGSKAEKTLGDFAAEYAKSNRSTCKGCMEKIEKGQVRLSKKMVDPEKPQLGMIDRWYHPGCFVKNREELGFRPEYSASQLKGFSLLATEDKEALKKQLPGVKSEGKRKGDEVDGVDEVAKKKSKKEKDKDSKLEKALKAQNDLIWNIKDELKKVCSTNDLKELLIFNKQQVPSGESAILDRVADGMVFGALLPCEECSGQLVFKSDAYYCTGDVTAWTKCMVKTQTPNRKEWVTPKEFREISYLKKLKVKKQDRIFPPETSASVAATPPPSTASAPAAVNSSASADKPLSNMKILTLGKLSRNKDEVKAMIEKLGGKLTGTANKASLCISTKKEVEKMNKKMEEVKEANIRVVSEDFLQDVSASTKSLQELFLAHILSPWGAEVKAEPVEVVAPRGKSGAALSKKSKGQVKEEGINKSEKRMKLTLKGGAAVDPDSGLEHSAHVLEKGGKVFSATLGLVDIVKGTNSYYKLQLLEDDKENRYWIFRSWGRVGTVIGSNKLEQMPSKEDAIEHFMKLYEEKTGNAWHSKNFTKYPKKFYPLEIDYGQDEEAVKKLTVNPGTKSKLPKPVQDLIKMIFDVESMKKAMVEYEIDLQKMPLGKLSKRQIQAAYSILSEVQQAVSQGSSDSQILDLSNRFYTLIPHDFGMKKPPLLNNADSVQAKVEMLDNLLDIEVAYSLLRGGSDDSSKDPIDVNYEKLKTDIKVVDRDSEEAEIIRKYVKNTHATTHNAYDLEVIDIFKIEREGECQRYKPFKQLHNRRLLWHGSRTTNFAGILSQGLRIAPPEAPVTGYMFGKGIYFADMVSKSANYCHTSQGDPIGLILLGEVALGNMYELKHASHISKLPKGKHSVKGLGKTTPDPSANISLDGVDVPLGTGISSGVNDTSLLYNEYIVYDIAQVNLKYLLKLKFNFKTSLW

Structure (SMILES): Nc1ncnc2c1ncn2[C@@H]1O[C@H](COP(=O)(O)OP(=O)(O)OC[C@H]2OC(O)[C@H](O)[C@@H]2O)[C@@H](O)[C@H]1O (stereo partly shown) [ADP-ribose]
[32P]NAD+ automodification assay, single concentration of 50 μM [1]: With the exception of ADP-ribose, other adenine derivatives only inhibited PARP-1 to a limited extent

inhibition at 1000 µM [2]: ~25%
Structure (SMILES): Nc1ncnc2c1ncn2[C@@H]1O[C@H](COP(=O)(O)OP(=O)(O)OP(=O)(O)O)[C@@H](O)[C@H]1O [ATP]

Km [3]: 200 to 250 µM
Structure (SMILES): NC(=O)c1ccc[n+]([C@@H]2O[C@H](COP(=O)([O-])OP(=O)(O)OC[C@H]3O[C@@H](n4cnc5c(N)ncnc54)[C@H](O)[C@@H]3O)[C@@H](O)[C@H]2O)c1 [NAD^+]

Ki [4]: 500 to 1000 nM
Structure (SMILES): Nc1ncnc2c1ncn2[C@@H]1O[C@H](COP(=O)(O)O)[C@@H](OP(=O)(O)O)[C@H]1O [pAp]
